This is an account of results in article PMC2917589 (Nature chemical biology, 2010).

Broadly, the Kd is the concentration at which binding is half-saturated.

Experiment [1] concerns the target myosin V (S1) 1IQ construct (Gallus gallus, UniProt Q02440). In kind it is binding.
For experiment [2], the target named is myosin V (S1) 6IQ construct (Gallus gallus, UniProt Q02440). In kind it is binding.
Sequence of myosin V (S1) 6IQ construct (Q02440 whole entry, looked up): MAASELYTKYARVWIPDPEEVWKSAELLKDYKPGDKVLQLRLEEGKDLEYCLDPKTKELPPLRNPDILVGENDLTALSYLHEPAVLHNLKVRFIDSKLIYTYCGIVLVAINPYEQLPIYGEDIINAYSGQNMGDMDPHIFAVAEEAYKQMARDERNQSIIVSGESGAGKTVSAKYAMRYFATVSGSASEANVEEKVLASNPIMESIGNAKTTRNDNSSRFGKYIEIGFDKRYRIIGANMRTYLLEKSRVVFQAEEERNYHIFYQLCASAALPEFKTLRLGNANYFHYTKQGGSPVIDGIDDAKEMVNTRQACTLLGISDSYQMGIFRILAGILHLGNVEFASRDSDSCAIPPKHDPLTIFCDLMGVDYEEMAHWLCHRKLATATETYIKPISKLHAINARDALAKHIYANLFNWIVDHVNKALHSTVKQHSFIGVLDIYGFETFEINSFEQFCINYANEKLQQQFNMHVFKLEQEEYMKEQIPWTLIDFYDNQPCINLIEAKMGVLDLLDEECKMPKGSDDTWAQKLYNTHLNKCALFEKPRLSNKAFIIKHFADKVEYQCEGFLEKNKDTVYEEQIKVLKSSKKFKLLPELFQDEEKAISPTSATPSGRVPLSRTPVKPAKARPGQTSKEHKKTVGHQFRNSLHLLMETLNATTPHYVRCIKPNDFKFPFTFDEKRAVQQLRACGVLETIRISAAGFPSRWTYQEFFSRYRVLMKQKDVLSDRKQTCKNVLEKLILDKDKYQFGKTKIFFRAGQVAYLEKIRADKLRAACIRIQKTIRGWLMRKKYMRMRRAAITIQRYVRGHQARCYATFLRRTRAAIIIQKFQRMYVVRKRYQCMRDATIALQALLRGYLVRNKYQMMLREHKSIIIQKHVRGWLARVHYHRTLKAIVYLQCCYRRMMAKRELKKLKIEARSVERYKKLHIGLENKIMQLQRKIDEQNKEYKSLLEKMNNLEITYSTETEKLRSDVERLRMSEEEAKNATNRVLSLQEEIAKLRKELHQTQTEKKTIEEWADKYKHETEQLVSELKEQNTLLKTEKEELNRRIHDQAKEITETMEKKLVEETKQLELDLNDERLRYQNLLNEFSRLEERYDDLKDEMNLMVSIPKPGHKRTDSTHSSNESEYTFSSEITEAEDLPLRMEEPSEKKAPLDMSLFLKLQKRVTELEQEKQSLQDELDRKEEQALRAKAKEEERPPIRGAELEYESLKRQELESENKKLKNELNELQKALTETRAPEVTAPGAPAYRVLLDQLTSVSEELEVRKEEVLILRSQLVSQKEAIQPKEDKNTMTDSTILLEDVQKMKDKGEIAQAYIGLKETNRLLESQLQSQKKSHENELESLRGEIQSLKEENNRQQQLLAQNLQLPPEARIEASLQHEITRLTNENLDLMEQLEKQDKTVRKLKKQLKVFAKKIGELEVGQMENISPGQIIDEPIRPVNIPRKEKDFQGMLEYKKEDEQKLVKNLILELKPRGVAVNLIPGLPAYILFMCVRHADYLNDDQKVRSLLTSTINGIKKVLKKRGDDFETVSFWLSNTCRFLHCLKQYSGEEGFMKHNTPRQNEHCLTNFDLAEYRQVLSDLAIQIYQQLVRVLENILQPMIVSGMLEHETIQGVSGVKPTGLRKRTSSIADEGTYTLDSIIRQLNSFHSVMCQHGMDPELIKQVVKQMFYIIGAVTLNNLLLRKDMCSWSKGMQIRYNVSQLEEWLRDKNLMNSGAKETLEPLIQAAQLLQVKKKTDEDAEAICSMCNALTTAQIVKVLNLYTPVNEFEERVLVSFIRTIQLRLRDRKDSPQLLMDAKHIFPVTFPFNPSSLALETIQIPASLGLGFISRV

Sequence of myosin V (S1) 1IQ construct (Q02440 whole entry, looked up): as above

Turning to `Nc1ncnc2c1ncn2[C@@H]1O[C@H](COP(=O)(O)OP(=O)(O)O)[C@@H](O)[C@H]1O` [ADP], the Kd in experiment [1] was 2.4 ± 1.7 µM; in experiment [2], roughly 1 µM.
